Here are results for 1 molecule from patent publication US20240065988A1, “COMBINED USE OF KETAMINE AND RETIGABINE (EZOGABINE) FOR THE TREATMENT OF PSYCHIATRIC DISORDERS” (Yeda Research and Development Co. Ltd., priority 2021, published 2024).

One data set relates to CSDS mice (Nex-Cre-Ai9). Briefly: Forced swim test in chronic social defeat stress (CSDS) mice. As to conditions: ketamine 10 mg/kg i.p. vs saline, two days after treatment.
In the next data set the test system is mice. The experiment in a line: Home cage activity (locomotion). The class given is in vivo, mouse. As to conditions: 60-min period following treatment and 2 days post injection. The protocol:
The home cage activity was measured with the Mouse-E-Motion infrared-detecting devices (Infra-e-motion, Germany). Mice were single housed in fresh cages, and a metal food tray was employed to hold the devices in place. The base bedding was kept, but extra nesting materials that could conceal the animal were removed. The readout lasted 2 days (post-injection) during which time the animals were not disturbed. Locomotor activity was detected in 5-minute increments and averaged by the hour. The final analysis was applied to the first 60-minute period and the 48 hours (2 days), post injection.

In data set [1] the test system is CD-1 mice injected with shRNA-Kcnq2 or shRNA-control AAV. The experiment in a line: Forced swim test after AAV shRNA knockdown of Kcnq2 in the vHipp. The class given is in vivo, mouse.
Data set [2] has as its system primary hippocampal neurons. The experiment in a line: qPCR mRNA expression in primary hippocampal neurons treated with ketamine or HNKet. It counts as cell-based, mouse. As to conditions: 10 μM. The protocol:
Primary hippocampal neurons were generated from E16.5 embryos using a standard primary neuron cell culture protocol previously described [K. G. Schraut et al., Eur JNeurosci (2021) 53: 390-401]. Briefly, dissected hippocampi were harvested in ice-cold dissection medium (HBSS, 7 mM HEPES, 2 mM L-glutamine, 500 U/ml penicillin-streptomycin, all Thermo Fisher Scientific). The tissue was incubated for 10 minutes in 0.25% Trypsin-EDTA with 8 mM HEPES (Thermo Fisher Scientific) in a water bath at 37° C. Tissue was washed three times with serum medium (DMEM, 10% FBS, Thermo Fisher Scientific). The cells were dissociated by titration using glass Pasteur pipets 10 in serum medium and filtered with a 70 tm cell strainer (Corning). Cell culture plates were coated overnight with 0.05 mg/ml poly-D-lysine mol wt 70,000-150,000 (Sigma Aldrich) in 0.15 M borate buffer (pH=8.5). Cells were seeded in 24-well plates at a density of 5×10^4 cells in 1 ml growth medium (Neurobasal A medium, 1 x B27 supplement, 0.25×GlutaMAX, all Thermo Fisher Scientific) per well. All cultures were kept in a humidified incubator at 37° C. and 5% CO2. Growth medium was renewed after 7 days of culture. For all experiments, mature twenty-one-day old primary neuronal cultures were used.
Primary hippocampal neurons were generated from E16.5 embryos and cultured for 21 days, as described above (see Primary Cell Culture). For experiment 1 (FIGS. 3A-K), neurons were treated with a saline solution, (R,S)-ketamine (10 μM) (Ketaset, Zoetis, Germany) or (2R,6R)-HNKet (10 μM) (Sigma, Cat #SML1873-25MG) for 0, 2, 12, 24 or 48 hours and compared to untreated controls. For experiment 2 (FIGS. 6A-D), neurons were stimulated with either a saline solution, (2R,6R)-HNKet (10 μM), or a combination of (2R,6R)-HNKet (10 μM) plus nifedipine (10 μM) (Tocris Bioscience, Cat #1075), W-7 hydrochloride (10 μM) (Tocris, Cat #0369), or cyclosporine-A (1 μM) (Tocris, Cat #1101) for 30 minutes, 1, 2, or 6 hours, and compared to untreated controls.
Ketamine treatment regulates Kcnq2 in primary hippocampal neurons To corroborate the previous findings in glutamatergic neurons, it was next examined whether treatment of primary hippocampal neurons with either (R,S)-ketamine or its active metabolite, (2R,6R)-hydroxynorketamine (HNKet), could modify the mRNA expression of the 8 genes tested earlier in glutamatergic neurons. Mouse primary hippocampal neurons are mostly made up of glutamatergic neurons and therefore make a very good model system to further validate the previous in vivo findings. […]
A general note: Real-time PCR tracks product formation cycle by cycle.

The test system of data set [3] is treatment-resistant patients. As to conditions: single sub-anesthetic dose; cited from earlier work.
The next data set relates to Kcnq2 mRNA. The experiment in a line: Kcnq2 mRNA (qPCR) in the vHipp of CSDS mice, FACS-sorted cells and bulk. As to conditions: ketamine vs saline.
Data set [4] concerns ventral hippocampus bulk tissue. The experiment in a line: Bulk qPCR mRNA levels in brain punches (tissue homogenates) from the vHipp. As to conditions: ketamine 10 mg/kg, 2 days. It counts as in vivo, mouse.
The subject of another data set is CD-1 mice. Briefly: Social Box (SB) behavioral response, ketamine response score P-KET (PLS-DA). The class given is in vivo, mouse.

SMILES strings stand for the structures. Entries after “also recorded” stand apart in the source; their conditions may differ.

Turning to `CNC1(c2ccccc2Cl)CCCCC1=O` (racemic) [ketamine, (R,S)-ketamine], the “immobility time during the FST” value in the data set with CSDS mice (Nex-Cre-Ai9) is “significant decrease in immobility time”; in data set [1] (shRNA-scramble control mice, ketamine 10 mg/kg BW vs saline), “significant decrease in immobility time”. For the same molecule, the “locomotor activity (home cage), ketamine vs saline” value in the data set on mice was “no differences in total activity between groups; also recorded: no significant difference in the locomotion activity”. For the same molecule, the “antidepressant-like effects of ketamine in the FST” value in data set [1] (mice expressing the shRNA-Kcnq2 virus, ketamine 10 mg/kg BW) is recorded as “no longer detected”. Also, the “mRNA expression of Hspa8, Snap25, Hsp90ab1, Ndufa4, Ilf2, E2f1 and Kcnq2” value in data set [2] (2, 12, 24 or 48 hours) is recorded as “significant changes”. The “Kcnq2 mRNA expression” value in data set [2] (2, 12, 24 or 48 hours vs untreated and saline controls) is “significant upregulation at all time points tested”; in the data set on Kcnq2 mRNA (bulk mRNA), “no significant increase of Kcnq2 mRNA”; in the data set on Kcnq2 mRNA (glutamatergic neurons (tdTomato+)) it was “significantly increased to baseline levels”; in the data set with Kcnq2 mRNA (tdTomato negative cells), “no significant differences”. In addition, in data set [3], the “duration of antidepressant response” value is recorded as “up to 7 days”. The “onset of antidepressant response” value in data set [3] is “within hours”. In addition, the “bulk mRNA expression of the 8 genes, ketamine vs saline” value in data set [4] is on record as “did not reach statistical significance”. Further, the “response to ketamine (P-KET) in the SB vs saline” value in the data set with CD-1 mice (ketamine 10 mg/kg) is given as “significant difference”. In the data set on CD-1 mice (ketamine 10 mg/kg/BW i.p.), the “SB behavioral readouts (PLSDA classifier)” value was “spent more time exploring in an open area of the SB arena; also recorded: more social and anxiolytic behaviors”.
